The results in this text go back to US12263144B2, “Methods of treating IgA nephropathy with thiol-containing molecules” (Accubit LLC—Biotechnology, priority 2020, dated 2025).

Each structure is given as a SMILES string.

In one experiment the test system is Rat rIgA (poly-rIgA). As to the kind of experiment: SEC determination of poly- and mono-rIgA content of rat rIgA after treatment. Format: biochemical. The note with it: 1 h 37° C., PBS, SEC AUC. How it is done: (§1) The overall complex size of IgA aggregates was determined either by size-exclusion chromatography (SEC: Superdex 200 Increase 10/300 by GL Cytiva), or by SDS-PAGE. For evaluating the involvement of intermolecular disulfide connectivity in IgA complexes, IgA samples were treated with either reducing agents, such as DTT, TCEP or reduced glutathione (Sigma), or interventional drugs, such as cysteamine (Sigma), WR-1065 (Sigma) and N-Acetyl-L-cysteine (VWR Chemicals) in phosphate-buffered saline (PBS) pH7.4. Before running on SEC, samples were treated with the drugs at indicated concentrations at 37° C. for one hour.
In the meantime, the SEC column was also equilibrated with PBS supplemented with the reducing agent at the same concentration. For running SEC, 100 μL of the recombinant IgA (concentration varies between 1 mg/mL and 8 mg/mL) or purified native human IgA1 (˜1 mg/mL) was loaded to the column and UV absorption was recorded following elution. […] The ratios between poly-rIgA and mono-rIgA were calculated as between the corresponding areas under the curve (AUC), and the treatment effect of the thiol agents was judged by the reduction of the poly-rIgA level with a compensatory increase of the mono-rIgA content.
To further investigate specific cysteine residue(s) involved in IgA complexes, expression vectors were constructed to produce recombinant IgA (rIgA) Fc segments of rat and human sequences (FIG. 2, part A) as discussed above. Rat IgA analogs were expressed in BL21 DE3 strain of E. coil and recombinant protein were purified from the bacterial lysate using Histrap HP columns (GE Healthcare) by running fast protein liquid chromatography (FPLC). Human recombinant IgA mimetics were produced from human embryo kidney (HEK293) cells by transfection of the expressing plasmids. Recombinant IgA proteins expressed by the cells were secreted into the culture medium, and they were subsequently purified by Histrap HP columns by FPLC using standard procedures. […] Rat rIgA was produced from bacterial expression as discussed above.
Cysteamine (Cy), an aminothiol that can react with cysteine, is both a natural metabolite produced in mammalian cells and a clinical drug used for treatment of cystinosis. In cystinosis, cysteamine reduces the disulfide bond in cystine, which is the oxidated dimer of amino acid cysteine (FIG. 4, part A). In the context of cysteine residues in proteins, endogenous cysteamine as well as the therapeutic drug forms mixed disulfides with susceptible cysteine sulfhydryl groups in a process called cysteamination (FIG. 4, part B). It was sought to determine whether cysteamine could reduce Cys471-disulfides to disaggregate poly-IgA. Rat rIgA (SEQ ID NO.4) was treated with various concentrations of cysteamine for one hour at 37° C. in phosphate buffered saline at neutral pH and the protein complexes were analyzed by SEC. The SEC column (model: Superdex 200 Increase 10/300 GL by Cytiva) was preequilibrated with the same buffer supplemented with the same concentration of cysteamine.

The next experiment concerns the target T1, Human rIgA1 (poly-rIgA) (Homo sapiens, UniProt P01876).
T1 construct: IL-2 signal peptide (N, cleaved yes); 6xHis (N); made in house; host or cells: HEK293
As to the kind of experiment: SEC of human rIgA (HEK293-produced) after treatment. The format is biochemical. The note with it: human rIgA from HEK293 cells, FIG. 5 B. Here is the method:
as §1
In the meantime, the SEC column was also equilibrated with PBS supplemented with the reducing agent at the same concentration. For running SEC, 100 μL of the recombinant IgA (concentration varies between 1 mg/mL and 8 mg/mL) or purified native human IgA1 (˜1 mg/mL) was loaded to the column and UV absorption was recorded following elution. Recombinant IgA typically formed two elution peaks: a minor peak of ˜800 kDa poly-rIgA followed by a major peak of ˜170 kDa of monomeric rIgA. The ratios between poly-rIgA and mono-rIgA were calculated as between the corresponding areas under the curve (AUC), and the treatment effect of the thiol agents was judged by the reduction of the poly-rIgA level with a compensatory increase of the mono-rIgA content. […]

T1 sequence (P01876 121-353 isoform P01876-1): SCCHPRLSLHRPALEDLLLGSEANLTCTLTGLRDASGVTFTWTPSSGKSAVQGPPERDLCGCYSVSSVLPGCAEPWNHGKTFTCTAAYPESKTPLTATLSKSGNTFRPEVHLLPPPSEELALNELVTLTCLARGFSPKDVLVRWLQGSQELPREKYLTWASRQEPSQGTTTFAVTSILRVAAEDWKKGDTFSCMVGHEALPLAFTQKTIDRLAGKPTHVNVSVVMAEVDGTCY

`NCCS` [cysteamine]: the “Mono-IgA (%)” value worked out at 81.85% in the experiment with Rat rIgA (poly-rIgA) (cysteamine 0.1 mM), 89.57% in the experiment on Rat rIgA (poly-rIgA) (cysteamine 1 mM), 93.59% in the experiment on Rat rIgA (poly-rIgA) (cysteamine 5 mM) and 93.24% with Rat rIgA (poly-rIgA) (cysteamine 10 mM). Also, the “Poly-IgA (%)” value in the experiment with Rat rIgA (poly-rIgA) (cysteamine 0.1 mM) was determined as 18.15%; in the experiment with Rat rIgA (poly-rIgA) (cysteamine 1 mM), 10.43%; in the experiment on Rat rIgA (poly-rIgA) (cysteamine 5 mM), 6.414%; in the experiment on Rat rIgA (poly-rIgA) (cysteamine 10 mM), 6.759%. The “poly-rIgA level (SEC)” value at Human rIgA1 (poly-rIgA) is given as “reduction of poly-rIgA levels”.
